Patent publication US8889667B2 (Agios Pharmaceuticals, Inc, priority 2010, dated 2014)

The compounds below were run against PKM2 (Homo sapiens, UniProt P14618) (assay: PKM2 Assay (activation, LDH-coupled, absorbance at 340 nm)). Settings: Table 4.
PKM2, sequence (P14618 whole entry): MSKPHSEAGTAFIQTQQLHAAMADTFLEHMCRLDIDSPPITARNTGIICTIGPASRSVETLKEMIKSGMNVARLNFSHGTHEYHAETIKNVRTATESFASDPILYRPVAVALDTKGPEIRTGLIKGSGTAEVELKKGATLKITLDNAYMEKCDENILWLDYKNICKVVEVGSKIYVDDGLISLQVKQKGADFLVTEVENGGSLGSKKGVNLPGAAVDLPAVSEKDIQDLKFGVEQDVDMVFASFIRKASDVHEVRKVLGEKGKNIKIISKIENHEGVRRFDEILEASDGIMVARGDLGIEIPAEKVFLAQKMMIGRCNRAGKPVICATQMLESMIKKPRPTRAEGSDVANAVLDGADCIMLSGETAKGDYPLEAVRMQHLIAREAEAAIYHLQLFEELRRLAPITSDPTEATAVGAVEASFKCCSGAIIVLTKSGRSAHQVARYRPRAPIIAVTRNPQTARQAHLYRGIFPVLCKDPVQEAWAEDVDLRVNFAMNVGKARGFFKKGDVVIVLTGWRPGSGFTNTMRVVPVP
Format: biochemical
Procedure: • PKM2 stock enzyme solution was diluted in Reaction Buffer • 2 μL of compound was added into each well first, and then 180 μL of the Reaction Mix was added. • Reaction mixture with compound (without ADP) was incubated for 30 minutes at 4° C. • Plates were re-equilibrated to room temperature prior to adding 20 μL ADP to initiate the reaction. • Reaction progress was measured as changes in absorbance at 340 nm wavelength at room temperature (25° C.) Reaction Mix: PKM2 (50 ng/well), ADP (0.7 mM), PEP (0.15 mM), NADH (180 μM), LDH (2 units) in Reaction Buffer Reaction Buffer: 100 mM KCl, 50 mM Tris pH 7.5, 5 mM MgCl2, 1 mM DTT, 0.03% BSA.
Representative compounds of the invention were tested for their ability to activate PKM2 using the above assay. For simplicity, the activation activity of these compounds is represented as an AC50 in Tables 4 and 5 and throughout the application. […] “B” refers to an activator of PKM2 with an EC50 between 100 nM and 500 nM. “C” refers to an activator of PKM2 with an EC50 between 500 nM and 1000 nM. “D” refers to an activator of PKM2 with an EC50 between 1 μM and 20 μM. “E” refers a compound whose activation of PKM2 was not measurable. “N/C” refers to AC50 data not available.
In the case of `C[C@@H]1CN(Cc2ccccc2F)CCN1C(=O)c1ccc(NS(=O)(=O)c2cccc3cccnc23)cc1` [Compound 150, (R)—N-(4-(4-(2-fluorobenzyl)-2-methylpiperazine-1-carbonyl)phenyl)quinoline-8-sulfonamide], the AC50 is reported as less than 100 nM.
With `C[C@H]1CN(C(=O)OCC2CC2)CCN1C(=O)c1ccc(NS(=O)(=O)c2cccc3cccnc23)cc1` [Compound 111, (S)-Cyclopropylmethyl3-methyl-4-(4-(quinoline-8-sulfonamido)benzoyl)piperazine-1-carboxylate] the AC50 was less than 100 nM.
`C[C@@H]1CN(C(=O)OC2CCCCC2)CCN1C(=O)c1ccc(NS(=O)(=O)c2cccc3cccnc23)cc1` [Compound 123, (R)-Cyclohexyl 3-methyl-4-(4-(quinoline-8-sulfonamido)benzoyl)piperazine-1-carboxylate] was tested, and the AC50 was less than 100 nM.
`CC[C@H]1CN(Cc2ccc(F)cc2)CCN1C(=O)c1ccc(NS(=O)(=O)c2cccc3cccnc23)cc1` [Compound 134, (S)—N-(4-(2-ethyl-4-(4-fluorobenzyl)piperazine-1-carbonyl)phenyl)quinoline-8-sulfonamide] gave an AC50 of 100 to 500 nM.
Work on `C[C@@H]1CN(C(=O)OCCC2CCCCC2)CCN1C(=O)c1ccc(NS(=O)(=O)c2cccc3cccnc23)cc1` [Compound 121, (R)-2-Cyclohexylethyl 3-methyl-4-(4-(quinoline-8-sulfonamido)benzoyl)piperazine-1-carboxylate] yielded an AC50 of 100 to 500 nM.
In the case of `C[C@H]1CN(Cc2ccc(Cl)c(F)c2)CCN1C(=O)c1ccc(NS(=O)(=O)c2cccc3cccnc23)cc1` [Compound 138, (S)—N-(4-(4-(4-chloro-3-fluorobenzyl)-2-methylpiperazine-1-carbonyl)phenyl)quinoline-8-sulfonamide], the AC50 is reported as 100 to 500 nM.
`CC(c1ccc(F)cc1F)N1CCN(C(=O)c2ccc(NS(=O)(=O)c3cccc4cccnc34)cc2)[C@H](C)C1` (stereo partly drawn) [Compound 160, N-(4-((2R)-4-(1-(2,4-difluorophenyl)ethyl)-2-methylpiperazine-1-carbonyl)phenyl)quinoline-8-sulfonamide] showed an AC50 of less than 100 nM.
`C[C@@H]1CN(Cc2cc(F)c(F)cc2F)CCN1C(=O)c1ccc(NS(=O)(=O)c2cccc3cccnc23)cc1` [Compound 120, (R)—N-(4-(2-methyl-4-(2,4,5-trifluorobenzyl)piperazine-1-carbonyl)phenyl)quinoline-8-sulfonamide] showed an AC50 of less than 100 nM.
In the case of `C[C@H]1CN(CC2CCCC2)CCN1C(=O)c1ccc(NS(=O)(=O)c2cccc3cccnc23)cc1` [Compound 140, (S)—N-(4-(4-(cyclopentylmethyl)-2-methylpiperazine-1-carbonyl)phenyl)quinoline-8-sulfonamide], the AC50 is reported as less than 100 nM.
`CC(C)[C@H]1CN(C(C)c2ccc(F)cc2)CCN1C(=O)c1ccc(NS(=O)(=O)c2cccc3cccnc23)cc1` (stereo partly shown) [Compound 177] was tested, and the AC50 was 1000 to 20000 nM.
`CC1CN(Cc2ccc(Cl)c(F)c2)CC(C)N1C(=O)c1ccc(NS(=O)(=O)c2cccc3cccnc23)cc1` (stereo not shown) [Compound 197, N-(4-(4-(4-chloro-3-fluorobenzyl)-2,6-dimethylpiperazine-1-carbonyl)phenyl)quinoline-8-sulfonamide] gave an AC50 of 100 to 500 nM.

Same assay, conditions: Table 5
Work on `O=C(c1ccc(NS(=O)(=O)c2cccc3cccnc23)cc1)N1CCN(Cc2c[nH]cn2)CC1` [Compound 386, N-(4-(4-((1H-imidazol-4-yl)methyl)piperazine-1-carbonyl)phenyl)quinoline-8-sulfonamide] yielded an AC50 of 100 to 500 nM.
For `O=C(c1ccc(NS(=O)(=O)c2cccc3cccnc23)cc1)N1CCN(C(=O)c2c[nH]cn2)CC1` [Compound 349, N-(4-(4-(1H-imidazole-4-carbonyl)piperazine-1-carbonyl)phenyl)quinoline-8-sulfonamide], the AC50 was 100 to 500 nM.
Work on `O=C(c1ccc(NS(=O)(=O)c2cccc3cccnc23)cc1)N1CCN(Cc2cc[nH]n2)CC1` [Compound 384] yielded an AC50 of less than 100 nM.
`O=C(c1ccc(NS(=O)(=O)c2cccc3cccnc23)c(OC(F)(F)F)c1)N1CCN(Cc2cnccc2C(F)(F)F)CC1` [Compound 366, N-(2-(trifluoromethoxy)-4-(4-((4-(trifluoromethyl)pyridin-3-yl)methyl)piperazine-1-arbonyl)phenyl)quinoline-8-sulfonamide] was tested, and the AC50 was 100 to 500 nM.
In the case of `O=C(c1cc(F)cc(F)c1)N1CCN(C(=O)c2ccc(NS(=O)(=O)c3cccc4cccnc34)c(OC(F)(F)F)c2)CC1` [Compound 326, N-(4-(4-(3,5-difluorobenzoyl)piperazine-1-carbonyl)-2-(trifluoromethoxy)phenyl)quinoline-8-sulfonamide], the AC50 is reported as 100 to 500 nM.
With `O=C(O[C@H]1CCOC1)N1CCN(C(=O)c2ccc(NS(=O)(=O)c3cccc4cccnc34)c(OC(F)(F)F)c2)CC1` [Compound 343, (S)-Tetrahydrofuran-3-yl-4-(4-(quinoline-8-sulfonamido)-3-(trifluoromethoxy)benzoyl)piperazine-1-carboxylate] the AC50 was 1000 to 20000 nM.
Compound `O=C(c1ccc(NS(=O)(=O)c2cccc3cccnc23)c(OC(F)(F)F)c1)N1CCN(Cc2cccc(F)c2F)CC1` [Compound 375, N-(4-(4-(2,3-difluorobenzyl)piperazine-1-carbonyl)-2-(trifluoromethoxy)phenyl)quinoline-8-sulfonamide] has an AC50 of 100 to 500 nM.
For `CC(c1cc(F)cc(F)c1)N1CCN(C(=O)c2ccc(NS(=O)(=O)c3cccc4cccnc34)cc2)CC1` (stereo not shown) [Compound 331, N-(4-(4-(1-(3,5-difluorophenyl)ethyl)piperazine-1-carbonyl)phenyl)quinoline-8-sulfonamide], the AC50 was less than 100 nM.
`CC(C)(C(=O)N1CCN(C(=O)c2ccc(NS(=O)(=O)c3cccc4cccnc34)c(OC(F)(F)F)c2)CC1)c1ccccc1` [Compound 359, N-(4-(4-(2-methyl-2-phenylpropanoyl)piperazine-1-carbonyl)-2-(trifluoromethoxy)phenyl)quinoline-8-sulfonamide] gave an AC50 of 100 to 500 nM.
For `O=C(c1ccc(NS(=O)(=O)c2cccc3cccnc23)cc1)N1CCN(C(c2ccc(F)cc2)C(F)(F)F)CC1` (stereo not shown) [Compound 351, N-(4-(4-(2,2,2-trifluoro-1-(4-fluorophenyl)ethyl)piperazine-1-carbonyl)phenyl)quinoline-8-sulfonamide], the AC50 was less than 100 nM.
For `O=C(c1ccc(NS(=O)(=O)c2cccc3cccnc23)c(OC(F)(F)F)c1)N1CCN(Cc2ccc(C(F)(F)F)cc2)CC1` [Compound 334, N-(2-(trifluoromethoxy)-4-(4-(4-(trifluoromethyl)benzyl)piperazine-1-carbonyl)phenyl)quinoline-8-sulfonamide], the AC50 was 100 to 500 nM.
For `O=C(c1ccc(NS(=O)(=O)c2cccc3cccnc23)c(OC(F)(F)F)c1)N1CCN(Cc2ccc(F)cc2)CC1` [Compound 337, N-(4-(4-(4-fluorobenzyl)piperazine-1-carbonyl)-2-(trifluoromethoxy)phenyl)quinoline-8-sulfonamide], the AC50 was 1000 to 20000 nM.
`O=C(c1ccc(NS(=O)(=O)c2cccc3cccnc23)cc1F)N1CCN(CC2CCOC2)CC1` (stereo not shown) [Compound 425, N-(3-fluoro-4-(4-((tetrahydrofuran-3-yl)methyl)piperazine-1-carbonyl)phenyl)quinoline-8-sulfonamide] gave an AC50 of less than 100 nM.
`CC(c1cc(F)cc(F)c1F)N1CCN(C(=O)c2ccc(NS(=O)(=O)c3cccc4cccnc34)cc2)CC1` (stereo not shown) [Compound 396, N-(4-(4-(1-(2,3,5-trifluorophenyl)ethyl)piperazine-1-carbonyl)phenyl)quinoline-8-sulfonamide] showed an AC50 of less than 100 nM.
